Assay results published in patent US20170231929A1, “METHOD FOR ENHANCING IMMUNE CELL FUNCTION AND METHOD FOR ASSESSING IMMUNE CELL MULTIFUNCTIONALITY” (NATIONAL UNIVERSITY CORPORATION OKAYAMA UNIVERSITY, priority 2014, published 2017).
Values joined by “and” are separate entries in the source; they are usually repeats but may differ in a detail not shown here. Equal entries are not always repeated. “Also recorded” adds a separate entry of the source.

System: CD8^+T cells
Assay: Multifunctionality of CD8^+T cells of healthy subjects after metformin treatment of PBMC (flow cytometer)
Type: cell-based, human
Method: 1. Peripheral blood was obtained from a test subject, and PBMC was separated by a density-gradient centrifugation using a lymphocyte-separating reagent Ficoll-Paque® (GE Healthcare). 3 mL of Ficoll-Paque® was dispensed in a 15-mL tube. 8 mL of the peripheral blood was gently placed on the reagent. At this time, care should be taken not to mix Ficoll-Paque® with the peripheral blood. Centrifugation was performed at 400 g for 30 minutes, thereby separating PBMC. 2. The separated PBMC was preserved in a −150° C. freezer or liquid nitrogen using Bambang Car cell preservation liquid by adjusting the cell number to 2.0×10^6 cell/tube. 3. In the test, the thawed PBMC was cultured for 1 to 10 hours in the presence or absence of […]. The culture was performed using a 24-well plate, and the cell number was adjusted to about 5.0×10^5 cell/well. 4. The cells were collected after 1 to 10 hours, washed with medium, and cultured in the presence of a cell activation reagent (potent nanomolar activator of protein kinase C (PMA, 50 ng/mL), ionomycin (1 μM)) for 6 hours, thereby non-specifically stimulating T cells. At this time, BD Gorgi Stop™ was added to keep the produced cytokines inside the cells. 5. The cells were isolated and washed twice with a cell-staining buffer. First, staining of CD8, PD-1, Tim-3, which are molecules expressed on the T cell surface, was performed. In the staining, a staining buffer was added in an amount of 50 μL per sample. The culture was performed at 4° C. for 30 minutes. 6. The cells were collected and washed twice with a cell-staining buffer. 500 μL of BD Cytofix/Cytoperm was added and cultured at 4° C. for 30 minutes. 7. The cells were collected and washed twice with BD Perm/Wash™. Staining of cytokines IL-2, TNFα, and IFNγ was performed. In the staining, BD Perm/Wash™ was added in an amount of 50 μL per sample. The culture was performed at 4° C. for 30 minutes. 8. The cells were collected and washed twice with BD Perm/Wash™, and 200 μL of BD Perm/Wash™ was added. 9. Analysis was performed using a FACSCanto™ II flow cytometer (Becton, Dickinson and Company).
Among the PBMC treated with PMA/ionomycin in the method shown in (2) above, first, a gate was applied to CD8^+T cells using a FACSCanto™ II flow cytometer (Becton, Dickinson and Company), and then […] were removed by FSC-A and FSC-H. Using parameters FSC-A and SSC-A, a gate was applied to a lymphocyte group, thereby analyzing expression of PD-1 and Tim-3. Further, intracellular cytokines IFNγ, TNFα, and IL-2 were stained, and multifunctionality of CD8^+T cells contained in the PBMC was analyzed (FIG. 1).
PBMC obtained from healthy subjects (N=10) was cultured for an hour in the presence or absence of metformin by the method shown in (2). After metformin was removed, the PBMC was subjected to stimulating culture with PMA/ionomycin for 6 hours by the method shown in (3). Among the resulting PBMC, CD8^+T cells capable of simultaneously producing three kinds of cytokines, i.e., IFNγ, TNFα, and IL-2, were detected. The CD8^+T cells untreated with metformin were determined to be 0.11%, and the CD8^+T cells treated with metformin were determined to be 0.09% (FIG. 2). Accordingly, it was judged that multifunctionality of CD8^+T cells was not increased by a metformin treatment in healthy subjects.
In the PBMC of healthy subjects treated as above, the ratios of CD8^+T cells producing three kinds of cytokines (IFNγ/TNFα/IL-2), CD8^+T cells producing two kinds of cytokines (IFNγ/TNFα or IFNγ/IL-2), and CD8^+T cells producing one kind of cytokine (IFNγ) to the entire CD8^+T cells were calculated and shown in Table 1. The calculation results were compared between the metformin-untreated group (control) and the metformin-treated group (metformin).

[1] = PD-1+, Tim-3+, Healthy Subjects, subjects/total
[2] = PD-1+, Tim-3−, Healthy Subjects, subjects/total
[3] = PD-1−, Tim-3+, Healthy Subjects, subjects/total
[4] = PD-1−, Tim-3−, Healthy Subjects, subjects/total
[5] = Total CD8T, Healthy Subjects, subjects/total
[6] = healthy subjects, PBMC cultured an hour with metformin, then PMA/ionomycin 6 hours, each table row = one subject
[7] = healthy subjects, each table row = one subject
[8] = total CD8^+T cells, healthy subjects

CN(C)C(=N)N=C(N)N [metformin] was tested, and the “Decrease, IFNγ 1-cytokine-producing cell” value [1] was 4/10, the “Decrease, IFNγ/IL-2 2-cytokine-producing cell” value [1] was 4/10 and the “Decrease, IFNγ/TNFα 2-cytokine-producing cell” value [1] was 6/10. For the same compound, the “Decrease, IFNγ/TNFα/IL2 3-cytokine-producing cell” value [1] was 1/10, the “Increase, IFNγ 1-cytokine-producing cell” value [1] was 6/10 and the “Increase, IFNγ/IL-2 2-cytokine-producing cell” value [1] was 2/10. The “Increase, IFNγ/TNFα 2-cytokine-producing cell” value [1] was 3/10, the “Increase, IFNγ/TNFα/IL2 3-cytokine-producing cell” value [1] was 3/10 and 5/10 and the “No Change, IFNγ 1-cytokine-producing cell” value [1] was 0/10. The “No Change, IFNγ/IL-2 2-cytokine-producing cell” value [1] was 4/10, the “No Change, IFNγ/TNFα 2-cytokine-producing cell” value [1] was 1/10 and the “No Change, IFNγ/TNFα/IL2 3-cytokine-producing cell” value [1] was 4/10. The “Decrease, IFNγ 1-cytokine-producing cell” value [2] was 5/10, the “Decrease, IFNγ/IL-2 2-cytokine-producing cell” value [2] was 6/10 and the “Decrease, IFNγ/TNFα 2-cytokine-producing cell” value [2] was 4/10. For the same compound, the “Decrease, IFNγ/TNFα/IL2 3-cytokine-producing cell” value [2] was 5/10, the “Increase, IFNγ 1-cytokine-producing cell” value [2] was 2/10 and the “Increase, IFNγ/IL-2 2-cytokine-producing cell” value [2] was 3/10. The “Increase, IFNγ/TNFα 2-cytokine-producing cell” value [2] was 3/10, the “Increase, IFNγ/TNFα/IL2 3-cytokine-producing cell” value [2] was 3/10 and the “No Change, IFNγ 1-cytokine-producing cell” value [2] was 3/10. For the same compound, the “No Change, IFNγ/IL-2 2-cytokine-producing cell” value [2] was 1/10, the “No Change, IFNγ/TNFα 2-cytokine-producing cell” value [2] was 3/10 and the “No Change, IFNγ/TNFα/IL2 3-cytokine-producing cell” value [2] was 2/10. For the same compound, the “Decrease, IFNγ 1-cytokine-producing cell” value [3] was 6/10, the “Decrease, IFNγ/IL-2 2-cytokine-producing cell” value [3] was 4/10 and the “Decrease, IFNγ/TNFα 2-cytokine-producing cell” value [3] was 5/10. For the same compound, the “Decrease, IFNγ/TNFα/IL2 3-cytokine-producing cell” value [3] was 3/10, the “Increase, IFNγ 1-cytokine-producing cell” value [3] was 2/10 and the “Increase, IFNγ/IL-2 2-cytokine-producing cell” value [3] was 1/10. For the same compound, the “Increase, IFNγ/TNFα 2-cytokine-producing cell” value [3] was 3/10, the “Increase, IFNγ/TNFα/IL2 3-cytokine-producing cell” value [3] was 1/10 and the “No Change, IFNγ 1-cytokine-producing cell” value [3] was 2/10. For the same compound, the “No Change, IFNγ/IL-2 2-cytokine-producing cell” value [3] was 5/10, the “No Change, IFNγ/TNFα 2-cytokine-producing cell” value [3] was 2/10 and the “No Change, IFNγ/TNFα/IL2 3-cytokine-producing cell” value [3] was 6/10. The “Decrease, IFNγ 1-cytokine-producing cell” value [4] was 4/10, the “Decrease, IFNγ/IL-2 2-cytokine-producing cell” value [4] was 5/10 and the “Decrease, IFNγ/TNFα 2-cytokine-producing cell” value [4] was 4/10. The “Decrease, IFNγ/TNFα/IL2 3-cytokine-producing cell” value [4] was 7/10, the “Increase, IFNγ 1-cytokine-producing cell” value [4] was 2/10 and the “Increase, IFNγ/IL-2 2-cytokine-producing cell” value [4] was 4/10. The “Increase, IFNγ/TNFα 2-cytokine-producing cell” value [4] was 4/10, the “Increase, IFNγ/TNFα/IL2 3-cytokine-producing cell” value [4] was 2/10 and the “No Change, IFNγ 1-cytokine-producing cell” value [4] was 4/10. For the same compound, the “No Change, IFNγ/IL-2 2-cytokine-producing cell” value [4] was 1/10, the “No Change, IFNγ/TNFα 2-cytokine-producing cell” value [4] was 2/10 and the “No Change, IFNγ/TNFα/IL2 3-cytokine-producing cell” value [4] was 1/10. The “Increase + No Change, IFNγ/TNFα/IL2, share of subjects” value (Total CD8T, Healthy Subjects) was 30%, the “Decrease, IFNγ 1-cytokine-producing cell” value [5] was 2/10 and the “Decrease, IFNγ/IL-2 2-cytokine-producing cell” value [5] was 6/10. The “Decrease, IFNγ/TNFα 2-cytokine-producing cell” value [5] was 5/10, the “Decrease, IFNγ/TNFα/IL2 3-cytokine-producing cell” value [5] was 7/10 and the “Increase + No Change, IFNγ/TNFα/IL2” value [5] was 3/10. The “Increase, IFNγ 1-cytokine-producing cell” value [5] was 4/10, the “Increase, IFNγ/IL-2 2-cytokine-producing cell” value [5] was 3/10 and the “Increase, IFNγ/TNFα 2-cytokine-producing cell” value [5] was 3/10. For the same compound, the “Increase, IFNγ/TNFα/IL2 3-cytokine-producing cell” value [5] was 0/10, the “No Change, IFNγ 1-cytokine-producing cell” value [5] was 4/10 and the “No Change, IFNγ/IL-2 2-cytokine-producing cell” value [5] was 1/10. For the same compound, the “No Change, IFNγ/TNFα 2-cytokine-producing cell” value [5] was 2/10, the “No Change, IFNγ/TNFα/IL2 3-cytokine-producing cell” value [5] was 3/10 and the “CD8^+T cells capable of simultaneously producing IFNγ, TNFα and IL-2, treated with metformin” value (healthy subjects, FIG. 2, untreated with metformin 0.11%) was 0.09%. For the same compound, the “ratio of CD8^+T cells producing one kind of cytokine (IFNγ) to the entire CD8^+T cells, metformin” value [6] was 13.18% and 16.70% and 8.18% and 11.64% and 4.62% and 1.68% and 6.23% and 0.95% and 1.87% and 12.00%, the “ratio of CD8^+T cells producing two kinds of cytokines (IFNγ/IL-2) to the entire CD8^+T cells, metformin” value [6] was 0.47% and 0.48% and 0.71% and 0.28% and 0.15% and 0.03% and 0.21% and 0.05% and 0.14% and 0.24% and the “ratio of CD8^+T cells producing two kinds of cytokines (IFNγ/TNFα) to the entire CD8^+T cells, metformin” value [6] was 31.38% and 3.54% and 32.26% and 11.52% and 16.84% and 1.50% and 11.17% and 0.12% and 1.08% and 3.98%. The “change of IFNγ producing CD8^+T cell ratio by metformin treatment vs control” value [7] was “→ (other cases with no significant differences); also recorded: ↑ (a 10% or more increase by a metformin treatment); also recorded: ↓ (a 10% or more decrease by a metformin treatment)”, the “change of IFNγ/IL-2 producing CD8^+T cell ratio by metformin treatment vs control” value [7] was “↓ (a 10% or more decrease by a metformin treatment); also recorded: ↑ (a 10% or more increase by a metformin treatment); also recorded: → (other cases with no significant differences)” and the “change of IFNγ/TNFα producing CD8^+T cell ratio by metformin treatment vs control” value [7] was “↓ (a 10% or more decrease by a metformin treatment); also recorded: ↑ (a 10% or more increase by a metformin treatment); also recorded: → (other cases with no significant differences)”. The “multifunctionality of CD8^+T cells by a metformin treatment” value (healthy subjects, judgement from FIG. 2) was “not increased”, the “decrease in multifunctionality (three kinds of cytokines), share of subjects” value [8] was 70% and the “increase in multifunctionality (three kinds of cytokines), share of subjects” value [8] was 0%.
